Laboratory results: patent US20260176320A1, “MODULATORS OF G-PROTEIN COUPLED RECEPTORS” (priority 2018, published 2026)
Like-named read-outs stand apart in the source and are kept apart here.

Legend:
Assay type in all cases: cell-based
[1] = biological target: T1, GLP-1R (Homo sapiens, UniProt P43220); assay: PathHunter β-arrestin assay
How it was run: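 Agonist concentration–response (22 points, 2-fold steps, duplicates) was run on cells plated the previous day in BSA-supplemented (0.2%) medium. Stimulation lasted 90 min at 37 °C, followed by a 3 h dark incubation with detection reagent at room temperature and a luminescence read.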

[2] = biological target: T2, GIP-R (Homo sapiens, UniProt P48546); assay: HitHunter cAMP assay (GIP-R); details: cAMP; for Emax: read-out: (Emax) GIP-R
T2 sequence (P48546 22-466): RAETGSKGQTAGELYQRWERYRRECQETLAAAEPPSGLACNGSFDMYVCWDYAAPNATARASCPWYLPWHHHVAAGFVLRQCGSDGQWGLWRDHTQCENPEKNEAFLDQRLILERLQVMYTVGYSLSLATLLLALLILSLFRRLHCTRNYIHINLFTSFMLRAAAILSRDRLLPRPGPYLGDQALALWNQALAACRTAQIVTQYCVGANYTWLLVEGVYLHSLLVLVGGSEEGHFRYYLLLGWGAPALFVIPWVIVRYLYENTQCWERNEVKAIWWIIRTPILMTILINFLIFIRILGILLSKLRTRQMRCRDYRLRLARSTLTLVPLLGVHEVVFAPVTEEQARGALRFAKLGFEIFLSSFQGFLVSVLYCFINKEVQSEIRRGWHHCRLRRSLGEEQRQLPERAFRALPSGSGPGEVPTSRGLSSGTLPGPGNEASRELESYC
How it was run: (§1)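 Cells were resuspended in HBSS plus HEPES, IBMX (625 μM) and BSA, then dispensed with antibody at 10,000 per well. Agonists followed as 22-point twofold series, 30 min at room temperature. Antibody reagent and detection steps ran 1 h and overnight in the dark before luminescence.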

[3] = biological target: T1, GLP-1R; assay: HitHunter cAMP assay (GLP-1R); details: cAMP; for Emax: read-out: (Emax) GLP-1R
How it was run: as §1

[4] = PathHunter β-arrestin assay, read-out: β-arrestin activity EC50
[5] = Table 3A, read-out: EC50 GIP-R/nM
[6] = Table 3A, read-out: EC50 GLP-1R/nM
[7] = Table 3, read-out: EC50 GIP-R/nM
[8] = Table 3, read-out: EC50 GLP-1R/nM

T1 sequence (P43220 24-463): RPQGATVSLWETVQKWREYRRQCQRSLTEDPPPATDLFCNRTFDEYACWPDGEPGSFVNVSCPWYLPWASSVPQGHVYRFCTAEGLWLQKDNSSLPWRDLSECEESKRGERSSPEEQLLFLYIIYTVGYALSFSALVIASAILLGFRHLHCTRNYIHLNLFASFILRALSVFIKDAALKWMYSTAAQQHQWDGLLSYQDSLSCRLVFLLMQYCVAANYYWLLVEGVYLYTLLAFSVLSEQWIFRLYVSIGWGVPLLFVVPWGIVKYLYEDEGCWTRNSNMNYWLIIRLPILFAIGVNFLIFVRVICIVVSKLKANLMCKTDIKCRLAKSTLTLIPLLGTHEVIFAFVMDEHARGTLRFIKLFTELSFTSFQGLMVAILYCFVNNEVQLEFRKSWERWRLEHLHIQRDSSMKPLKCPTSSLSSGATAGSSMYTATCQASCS

SMILES | EC50 [1, 4] | Emax ([2]; Table 3A) | EC50 [2, 5] | Emax ([3]; Table 3A) | EC50 [3, 6] | EC50 [2, 7] | Emax at 1 µM ([2]; read-out: (Emax) GIP-R at 1 μM, Table 3) | Emax at 1 µM ([2]; read-out: (Emax) GIP-R at 1 μM, Table 3A) | Emax ([3]; Table 3) | EC50 [3, 8] | Emax ([2]; Table 3) | EC50 [1] | EC50 ([2]; EC50 GIP-R/nM, Table 3) | EC50 ([2]; EC50 GIP-R/nM, Table 3A) | EC50 ([3]; EC50 GLP-1R/nM, Table 3) | EC50 ([3]; EC50 GLP-1R/nM, Table 3A)
CCCCCCCCCCCCCCCC(=O)N[C@@H](CCC(=O)NCCCC[C@H](NC(=O)[C@H](CO)NC(=O)[C@@H]1CCCN1C(=O)[C@@H]1CCCN1C(=O)[C@@H]1CCCN1C(=O)[C@H](C)NC(=O)CNC(=O)[C@H](CO)NC(=O)[C@H](CO)NC(=O)[C@@H]1CCCN1C(=O)CNC(=O)CNC(=O)[C@H](C)NC(=O)[C@H](CC(C)C)NC(=O)[C@H](CC(C)C)NC(=O)[C@H](Cc1c[nH]c2ccccc12)NC(=O)[C@H](CC(N)=O)NC(=O)[C@@H](NC(=O)[C@H](Cc1ccccc1)NC(=O)[C@H](CCC(=O)O)NC(=O)C(C)(C)NC(=O)[C@H](C)NC(=O)[C@H](C)NC(=O)[C@H](CCC(N)=O)NC(=O)[C@H](CCCCN)NC(=O)[C@H](CC(=O)O)NC(=O)[C@H](CC(C)C)NC(=O)[C@H](Cc1ccc(O)cc1)NC(=O)[C@@H](NC(=O)[C@H](CO)NC(=O)[C@H](Cc1ccc(O)cc1)NC(=O)[C@H](CC(=O)O)NC(=O)[C@H](CO)NC(=O)[C@@H](NC(=O)[C@H](Cc1ccccc1)NC(=O)[C@@H](NC(=O)CNC(=O)[C@H](CCC(=O)O)NC(=O)[C@@H](C)NC(=O)CN1CCCCC1=O)[C@@H](C)O)[C@@H](C)O)[C@@H](C)CC)C(C)C)C(N)=O)C(=O)O [Compound 213] | 0.01 to 1 µM | 59% | 0.1 to 1 nM | 90% | < 0.1 nM | – | – | – | – | – | – | – | – | – | – | –
CC[C@H](C)[C@H](NC(=O)[C@H](CO)NC(=O)[C@H](Cc1ccc(O)cc1)NC(=O)[C@H](CC(=O)O)NC(=O)[C@H](CO)NC(=O)[C@@H](NC(=O)[C@H](Cc1ccccc1)NC(=O)[C@@H](NC(=O)CNC(=O)[C@H](CCC(=O)O)NC(=O)[C@H]1CC[C@@H](C(=O)NCCN2C(=O)CSC2=O)CC1)[C@@H](C)O)[C@@H](C)O)C(=O)N[C@@H](Cc1ccc(O)cc1)C(=O)N[C@@H](CC(C)C)C(=O)N[C@@H](CC(=O)O)C(=O)N[C@@H](CCCCN)C(=O)N[C@@H](CCC(N)=O)C(=O)N[C@@H](C)C(=O)N[C@@H](C)C(=O)NC(C)(C)C(=O)N[C@@H](CCC(=O)O)C(=O)N[C@@H](Cc1ccccc1)C(=O)N[C@H](C(=O)N[C@@H](CC(N)=O)C(=O)N[C@@H](Cc1c[nH]c2ccccc12)C(=O)N[C@@H](CC(C)C)C(=O)N[C@@H](CC(C)C)C(=O)N[C@@H](C)C(=O)NCC(=O)NCC(=O)N1CCC[C@H]1C(=O)N[C@@H](CO)C(=O)N[C@@H](CO)C(=O)NCC(=O)N[C@@H](C)C(=O)N1CCC[C@H]1C(=O)N1CCC[C@H]1C(=O)N1CCC[C@H]1C(=O)N[C@@H](CO)C(=O)N[C@@H](CCCCN)C(N)=O)C(C)C [Compound 182] | > 1 µM | – | 100 to 1000 nM | 96% | 0.1 to 1 nM | 100 to 1000 nM | 12% | 12% | 96% | 0.1 to 1 nM | – | – | – | – | – | –
CCCCCCCCCCCCCCCC(=O)N[C@@H](CCC(=O)NCCCC[C@H](NC(=O)[C@H](CO)NC(=O)[C@@H]1CCCN1C(=O)[C@@H]1CCCN1C(=O)[C@@H]1CCCN1C(=O)[C@H](C)NC(=O)CNC(=O)[C@H](CO)NC(=O)[C@H](CO)NC(=O)[C@@H]1CCCN1C(=O)CNC(=O)CNC(=O)[C@H](C)NC(=O)[C@H](CC(C)C)NC(=O)[C@H](CC(C)C)NC(=O)[C@H](Cc1c[nH]c2ccccc12)NC(=O)[C@H](CC(N)=O)NC(=O)[C@@H](NC(=O)[C@H](Cc1ccccc1)NC(=O)[C@H](CCC(=O)O)NC(=O)C(C)(C)NC(=O)[C@H](C)NC(=O)[C@H](C)NC(=O)[C@H](CCC(N)=O)NC(=O)[C@H](CCCCN)NC(=O)[C@H](CC(=O)O)NC(=O)[C@H](CC(C)C)NC(=O)[C@H](Cc1ccc(O)cc1)NC(=O)[C@@H](NC(=O)[C@H](CO)NC(=O)[C@H](Cc1ccc(O)cc1)NC(=O)[C@H](CC(=O)O)NC(=O)[C@H](CO)NC(=O)[C@@H](NC(=O)[C@H](Cc1ccccc1)NC(=O)[C@@H](NC(=O)CNC(=O)[C@H](CCC(=O)O)NC(=O)CSCC(=O)NCCN1CCOC1=O)[C@@H](C)O)[C@@H](C)O)[C@@H](C)CC)C(C)C)C(N)=O)C(=O)O [Compound 39] | > 1 µM | 40 to 60% | 0.1 to 10 nM | 102 to 104% | < 1 nM | 0.1 to 10 nM | – | – | 102 to 104% | < 1 nM | 40 to 60% | – | – | – | – | –
CC[C@H](C)[C@H](NC(=O)[C@H](CO)NC(=O)[C@H](Cc1ccc(O)cc1)NC(=O)[C@H](CC(=O)O)NC(=O)[C@H](CO)NC(=O)[C@@H](NC(=O)[C@H](Cc1ccccc1)NC(=O)[C@@H](NC(=O)CNC(=O)[C@H](CCC(=O)O)NC(=O)CSCC(=O)NCCN1C(=O)[C@H]2CCCC[C@H]2C1=O)[C@@H](C)O)[C@@H](C)O)C(=O)N[C@@H](Cc1ccc(O)cc1)C(=O)N[C@@H](CC(C)C)C(=O)N[C@@H](CC(=O)O)C(=O)N[C@@H](CCCCN)C(=O)N[C@@H](CCC(N)=O)C(=O)N[C@@H](C)C(=O)N[C@@H](C)C(=O)NC(C)(C)C(=O)N[C@@H](CCC(=O)O)C(=O)N[C@@H](Cc1ccccc1)C(=O)N[C@H](C(=O)N[C@@H](CC(N)=O)C(=O)N[C@@H](Cc1c[nH]c2ccccc12)C(=O)N[C@@H](CC(C)C)C(=O)N[C@@H](CC(C)C)C(=O)N[C@@H](C)C(=O)NCC(=O)NCC(=O)N1CCC[C@H]1C(=O)N[C@@H](CO)C(=O)N[C@@H](CO)C(=O)NCC(=O)N[C@@H](C)C(=O)N1CCC[C@H]1C(=O)N1CCC[C@H]1C(=O)N1CCC[C@H]1C(=O)N[C@@H](CO)C(=O)N[C@@H](CCCCN)C(N)=O)C(C)C [Compound 159] | – | 89 to 92% | – | 87 to 91% | – | – | – | – | 87 to 91% | – | 89 to 92% | > 1 µM | 1 to 10 nM | 1 to 10 nM | 10 to 100 nM | 10 to 100 nM
CC[C@H](C)[C@H](NC(=O)[C@H](CO)NC(=O)[C@H](Cc1ccc(O)cc1)NC(=O)[C@H](CC(=O)O)NC(=O)[C@H](CO)NC(=O)[C@@H](NC(=O)[C@H](Cc1ccccc1)NC(=O)[C@@H](NC(=O)CNC(=O)[C@H](CCC(=O)O)NC(=O)CSCC(=O)NCCCCN1C(=O)CSC1=O)[C@@H](C)O)[C@@H](C)O)C(=O)N[C@@H](Cc1ccc(O)cc1)C(=O)N[C@@H](CC(C)C)C(=O)N[C@@H](CC(=O)O)C(=O)N[C@@H](CCCCN)C(=O)N[C@@H](CCC(N)=O)C(=O)N[C@@H](C)C(=O)N[C@@H](C)C(=O)NC(C)(C)C(=O)N[C@@H](CCC(=O)O)C(=O)N[C@@H](Cc1ccccc1)C(=O)N[C@H](C(=O)N[C@@H](CC(N)=O)C(=O)N[C@@H](Cc1c[nH]c2ccccc12)C(=O)N[C@@H](CC(C)C)C(=O)N[C@@H](CC(C)C)C(=O)N[C@@H](C)C(=O)NCC(=O)NCC(=O)N1CCC[C@H]1C(=O)N[C@@H](CO)C(=O)N[C@@H](CO)C(=O)NCC(=O)N[C@@H](C)C(=O)N1CCC[C@H]1C(=O)N1CCC[C@H]1C(=O)N1CCC[C@H]1C(=O)N[C@@H](CO)C(=O)N[C@@H](CCCCN)C(N)=O)C(C)C [Compound 184] | – | 43% | – | 99% | – | – | – | – | 99% | – | 43% | > 1 µM | 10 to 100 nM | 10 to 100 nM | 1 to 10 nM | 1 to 10 nM
CCCCCCCCCCCCCCCC(=O)N[C@@H](CCC(=O)NCCCC[C@H](NC(=O)[C@H](CO)NC(=O)[C@@H]1CCCN1C(=O)[C@@H]1CCCN1C(=O)[C@@H]1CCCN1C(=O)[C@H](C)NC(=O)CNC(=O)[C@H](CO)NC(=O)[C@H](CO)NC(=O)[C@@H]1CCCN1C(=O)CNC(=O)CNC(=O)[C@H](C)NC(=O)[C@H](CC(C)C)NC(=O)[C@H](CC(C)C)NC(=O)[C@H](Cc1c[nH]c2ccccc12)NC(=O)[C@H](CC(N)=O)NC(=O)[C@@H](NC(=O)[C@H](Cc1ccccc1)NC(=O)[C@H](CCC(=O)O)NC(=O)C(C)(C)NC(=O)[C@H](C)NC(=O)[C@H](C)NC(=O)[C@H](CCC(N)=O)NC(=O)[C@H](CCCCN)NC(=O)[C@H](CC(=O)O)NC(=O)[C@H](CC(C)C)NC(=O)[C@H](Cc1ccc(O)cc1)NC(=O)[C@@H](NC(=O)[C@H](CO)NC(=O)[C@H](Cc1ccc(O)cc1)NC(=O)[C@H](CC(=O)O)NC(=O)[C@H](CO)NC(=O)[C@@H](NC(=O)[C@H](Cc1ccccc1)NC(=O)[C@@H](NC(=O)CNC(=O)[C@H](CCC(=O)O)NC(=O)CSCC(=O)NCCN1CCC[C@H](O)C1=O)[C@@H](C)O)[C@@H](C)O)[C@@H](C)CC)C(C)C)C(N)=O)C(=O)O [Compound 21] | – | 20% | – | 95% | – | – | – | – | 95% | – | 20% | > 1 µM | 1 to 10 nM | 10 to 100 nM | < 0.1 nM | < 0.1 nM
